Data from patent publication US20190364896A1, “SYNERGISTIC WEED CONTROL FROM APPLICATIONS OF PYRIDINE CARBOXYLIC ACID HERBICIDES AND ALS INHIBITORS” (Dow AgroSciences LLC, priority 2014, published 2019).
“And” between values parts separate entries of the source, which are not always exact repeats. Equal values may be shown once.

Tests used:
[1] = test system: spring rape (Brassica napus, BRSNN); test: Postemergence herbicidal activity, greenhouse trial (visual injury 0-100%); type: in vivo
[2] = test system: rutabaga (Brassica napus var. napobrassica, BRSNA); test: as above; type: in vivo; details: 5 g ae/ha
Procedure: (§1) Seeds of the desired test plant species were planted in Sun Gro MetroMix® 306 planting mixture, which typically has a pH of 6.0 to 6.8 and an organic matter content of about 30 percent, in plastic pots with a surface area of 103.2 square centimeters (cm^2). […] The plants were grown for 7-36 days (d) in a greenhouse with an approximate 14-hour (h) photoperiod which was maintained at about 23° C. during the day and 22° C. during the night. Nutrients and water were added on a regular basis and supplemental lighting was provided with overhead metal halide 1000-Watt lamps as necessary. The plants were employed for testing when they reached the second or third true leaf stage.
(§2) Weighed amounts of technical material were dissolved in a volume of 97:3 volume per volume (v/v) acetone/dimethyl sulfoxide (DMSO) to stock solutions. […] The concentrated stock solutions were diluted with an aqueous mixture of 1.5% v/v of Agri-dex crop oil concentrate to provide the appropriate application rates. Compound requirements are based upon a 12 milliliter (mL) application volume at a rate of 187 liters per hectare (L/ha). Spray solutions of the experimental compound mixtures were prepared by adding the stock solutions to the appropriate amount of dilution solution to form a 12 mL spray solution in two-way combinations. Formulated compounds were applied to the plant material with an overhead Mandel track sprayer equipped with 8002E nozzles calibrated to deliver 187 L/ha over an application area of 0.503 square meters (m^2) at a spray height of 18 inches (43 centimeters (cm)) above average plant canopy. Control plants were sprayed in the same manner with the solvent blank. Application rates for component (a) are in g ae/ha, and application rates for component (b) are in g ai/ha.
(§3) The treated plants and control plants were placed in a greenhouse as described above and watered by sub-irrigation to prevent wash-off of the test compounds. After 20-22 d, the condition of the test plants as compared with that of the control plants was determined visually and scored on a scale of 0 to 100 percent where 0 corresponds to no injury and 100 corresponds to complete kill. The condition of the test plants was compared with that of the control plants as determined visually and scored on a scale of 0 to 100 percent, where 0 corresponds to no injury and 100 corresponds to complete kill. Colby's equation was used to determine the herbicidal effects expected from the mixtures.
(§4) Compound 1 was formulated as an EC and was combined with imazamox, imazamethabenz, imazapic, imazapyr or imazethapyr. The mixtures were applied to winter wheat (TRZAW) and/or maize (ZEAMX), and the phytotoxicity of the herbicidal compositions was measured. In addition, the efficacy of the herbicidal compositions on blackgrass (Alopecurus myosuroides, ALOMY), wild oat (Avena fatua, AVEFA), winter rape (Brassica napus, BRSNW), spring rape (Brassica napus, BRSNN), turnip (Brassica rapa, BRSRR), thistle (Cirsium arvense, CIRAR), large crabgrass (Digitaria sanguinalis, DIGSA), pigweed (Amaranthus retrollexus, AMARE), common lambsquarters (Chenopodium album L., CHEAL), poinsettia (Euphorbia heterophylla, EPHHL), ivyleaf morning-glory (Ipomoea hederacea, IPOHE), kochia (Kochia scoparia, KCHSC), wild buckwheat (Polygonum convolvulus, POLCO), grain sorghum (Sorghum vulgare, SORVU), chickweed (Stellaria media, STEME), wild pansy (Viola tricolor, VIOTR), sunflower (Helianthus annuus, HELAN), giant foxtail (Setaria faberi, SETFA), soybean (Glycine max, GLXMA), rutabaga (Brassica napus var. napobrassica, BRSNA) and barnyardgrass (Echinochloa crus-galli, ECHCG) was evaluated.

[3] = test system: soybean (Glycine max, GLXMA); test: as above; type: in vivo
Procedure: as §1, §2, §3, §4

[4] = test system: turnip (Brassica rapa, BRSRR); test: as above; type: in vivo; details: 5 g ae/ha
Procedure: as §1, §2, §3, §4

[5] = test system: winter rape (Brassica napus, BRSNW); test: as above; type: in vivo
[6] = test system: giant foxtail (Setaria faberi, SETFA); test: as above; type: in vivo
[7] = test system: brown mustard (Brassica juncea, BRSJU); test: as above; type: in vivo; details: Compound 1 5 g ae/ha
[8] = test system: winter wheat (Triticum aestivum, TRZAW); test: Postemergence crop injury (phytotoxicity), greenhouse trial (visual injury 0-100%); details: 7.5 g ai/ha
Procedure: as §1, §2, §3
Compound 2 was combined with florasulam and applied to winter wheat (TRZAW) and the phytotoxicity of the herbicidal composition was measured. In addition, the efficacy of the herbicidal composition on poinsettia (Euphorbia heterophylla, EPHHL) and […] (Cyperus esculentus, CYPES) was evaluated.
Weighed amounts of technical or formulated material (emulsifiable concentrate (EC) or soluble concentrate (SL)) were dissolved in a volume of 97:3 volume per volume (v/v) acetone/dimethyl sulfoxide (DMSO) to stock solutions. […] The concentrated stock solutions were diluted with an aqueous mixture of 1.5% v/v of Agri-dex crop oil concentrate to provide the appropriate application rates. Compound requirements are based upon a 12 milliliter (mL) application volume at a rate of 187 liters per hectare (L/ha). Spray solutions of the experimental compound mixtures were prepared by adding the stock solutions to the appropriate amount of dilution solution to form a 12 mL spray solution in two-way combinations. […]

| SMILES | % visual injury Obs ([1]; 5 g ae/ha) [%] | % visual injury Obs ([1]; BRSNN, Compound 1 5 g ae/ha) [%] | % visual injury Obs [2] [%] | % visual injury Obs ([3]; 5 g ae/ha) [%] | % visual injury Obs ([3]; 10 g ae/ha) [%] | % visual injury Obs [4] [%] | % visual injury Obs ([5]; 5 g ae/ha) | % visual injury Obs ([5]; 10 g ae/ha) [%] | % visual injury Obs ([5]; BRSNW, Compound 1 5 g ae/ha) | % visual injury Obs ([5]; BRSNW, Compound 1 10 g ae/ha) [%] | % visual injury Obs ([6]; 5 g ae/ha) [%] | % visual injury Obs ([6]; 10 g ae/ha) [%] | % visual injury Obs ([6]; SETFA, Compound 1 5 g ae/ha) [%] | % visual injury Obs ([6]; SETFA, Compound 1 10 g ae/ha) [%] | % visual injury Obs [7] [%] | % visual injury Obs [8] [%] |
| --- | --- | --- | --- | --- | --- | --- | --- | --- | --- | --- | --- | --- | --- | --- | --- | --- |
| Nc1c(F)c(-c2ccc3cc[nH]c3c2F)nc(C(=O)O)c1Cl [Compound 1] | 50 | 70 | 65 | 95 | 100 | 50 | 30% and 40% | 45 | 50% and 40% | 45 | 10 | 50 | 10 | 50 | 60 | – |
| CCCOc1nn(C(=O)NS(=O)(=O)c2ccccc2C(=O)OC)c(=O)n1C [Propoxycarbazone, propoxycarbazone] | – | – | – | – | – | – | – | – | – | – | – | – | – | – | – | 10 |
